This is an account of results in US10583106B2, “Method of treating cancer by oral administration of acetate composition comprising magnesium acetate, calcium acetate or ethylacetate” (priority 2015, dated 2020).

Like-named read-outs stand apart in the source and are kept apart here. A value given as a limit tells only on which side of the number the result lay.

For data set [1], the system named is X-inactivation. The settings on record: cited from earlier work.
The subject of data set [2] is FMR1 mRNA. The settings on record: Baicsi, 2008; cited from earlier work.
Data set [3] deals with MeCP2^tm1.1Jae mice. Also on record: key to Lifespan / Normal breathing / Motor function / Motility: ↑: increased; ↓: decreased. The settings on record: cited from earlier work.
Data set [4] relates to MeCP2^1lox mice. Also on record: key: ↑: increased; ↓: decreased. The settings on record: Schaevitz, 2012, cited from earlier work.
Data set [5] has as its system histone acetylation. The settings on record: brief description of the histone acetylation mechanism; cited from earlier work.
Data set [6] relates to Non-Hodgkin's Lymphoma. The settings on record: continued regime of DCA and thiamine; cited from earlier work.
For data set [7] the following is noted: Flavin, 2010; cited from earlier work.
The conditions of data set [8]: radioactive DCA; exhaled in breath; cited from earlier work.
For data set [9], the system named is MeCP2^tm1.1Bird mice. Further details: key: ↑: increased; ↓: decreased. The settings on record: cited from earlier work.
Data set [10] has as its system Human females. Further details: key to Apneias: ↑: increased; ↓: decreased. The settings on record: cited from earlier work; for Apneias: Krajnc, 2013, Khwaja, 2014.
In data set [11] the test system is polyglutamine induced cell death. The settings on record: McCampbell, 2001; cited from earlier work.
Data set [12] concerns Silenced MeCP2 in mouse neurons. Further details: key: ↑: increased; ↓: decreased. The settings on record: Ma, 2015; cited from earlier work.
The subject of data set [13] is 16 month old mice. The settings on record: Peleg, 2010; cited from earlier work.
Data set [14] relates to R6/2 HD mice. The settings on record: cited from earlier work.
Data set [15] has as its system Rats. The settings on record: 30 days, diet with 28.5% of total calories supplied by Triacetin; cited from earlier work.
Data set [16] deals with animals. The settings on record: cited from earlier work.
Data set [17] concerns adult offspring of Low LG maternal care. The settings on record: Weaver et al., 2004; cited from earlier work.
Data set [18] relates to MeCP2 KO mice. Also on record: key: ↑: increased; ↓: decreased. The settings on record: Park, 2014; cited from earlier work.
The subject of data set [19] is MeCP2-mutated human fibroblasts. The settings on record: Gold, 2015; cited from earlier work.
For data set [20] the test system is unchanged. Briefly: Tubastatin A in MeCP2-mutated human fibroblasts. The settings on record: 1 μM versus 5 mM butyrate.
Data set [21] concerns HDAC. The settings on record: Ookubo, 2013; cited from earlier work.
For data set [22], the system named is ectopically methylated DNA. The settings on record: cells harvested 48 hours after treatment; cited from earlier work.
Data set [23] has as its system histones. The settings on record: radiolabeled acetate; cited from earlier work.
Data set [24] has as its system MeCP2^tm1HzO mice. Further details: key: ↑: increased; ↓: decreased. The settings on record: Ben-Zeev, 2011, cited from earlier work.
Data set [25] relates to MecP2-null mice. Further details: key to Lifespan / Normal breathing / Motor function: ↑: increased; ↓: decreased. The settings on record: 2009, cited from earlier work.

On to `Nc1ncn([C@H]2C[C@H](O)[C@@H](CO)O2)c(=O)n1` [5-azadC, 5-aza-2′-deoxycytidine], for which the “number of cells that lost their X-inactivation” value in data set [1] (Xist on) was 19 × as many compared to controls; in [1] (combined with Xist deletion) it was 30 × as many compared to controls. In [2], the “FMR1 mRNA relative to normal control cells” value is recorded as “approximately 20%”.

On to `O=c1cc(-c2ccccc2)oc2c(O)c(O)ccc12` [7,8-dihydroxyflavone], for which, in [3] (Johnson, 2011), the Lifespan entry is “↑ Lifespan, ↑ Normal breathing,”; the Motor function entry is recorded as “↑ Motor function”; the Normal breathing entry was “↑ Lifespan, ↑ Normal breathing,”.

With `CC(=O)O[C@H](CC(=O)[O-])C[N+](C)(C)C` [Acetyl-L-Carnitine], in data set [4] (Nag, 2007), the Motor function entry was “↑ Motor function”. Further, the Forepaw grip strength result in data set [4] is reported as “↑ Forepaw grip strength,”. Further, in [5], the “Histone acetylation (mechanism)” value is given as “Increases Acetyl-CoA”.

On to `O=C(O)C(Cl)Cl` [DCA, dichloroacetate], for which, in data set [6], the monthly blood tests entry is given as “normal”. The “toxicity of prolonged exposure” value in data set [7] was “peripheral neuropathy”. The “fraction metabolized to carbon dioxide” value in [8] is given as “up to 50%”.

In the case of `CNCCCN1c2ccccc2CCc2ccccc21` [Desipramine], in data set [9] (Roux, 2007, Szczesna, 2014), the TH expressing neurons result is “↑”. Also, in [9] (Roux, 2007), the Apneas result is given as “↓”.

Take `CNC1(c2ccccc2Cl)CCCCC1=O` (stereo not drawn) [Ketamine]: in data set [3] (Kron, 2012), the “PPI of the ASR (cognitive function)” value was “Improved PPI of the ASR (cognitive”. Moreover, in data set [5], the “Histone acetylation (mechanism)” value was “HDACi activity in the Nucleus”.

As to `C[N+](C)(C)C[C@H](O)CC(=O)[O-]` [L-Carnitine], in [10] (Ellaway, 1999), the “Hand Apraxia Scale assessment” value was “no effect on Hand Apraxia Scale” and the “Patient Well Being Index” value was “Improved Patient Well Being Index,”. Besides, the “Histone acetylation (mechanism)” value in [5] is “Increases Acetyl-CoA”.

On to `N[C@@H](Cc1ccc(O)c(O)c1)C(=O)O` [Levodopa], for which the TH expressing neurons entry in [9] (Roux, 2007, Szczesna, 2014) is “↑ TH expressing neurons”. In data set [9] (Szczesna, 2014), the Hind-limb clasping result is “↓”, the Lifespan result is “↑”, the Motor function entry is “↑” and the Tremor result is reported as “↓”. The “Histone acetylation (mechanism)” value in data set [5] was “Histone acetylation,”.

Regarding `O=C(O)CCCc1ccccc1` [PBA, phenylbutyric acid], in data set [11], the “ability to reduce cell death” value is “reduction in cell death” and the “expression of AR [the mutant protein]” value is given as “slightly increased”.

In the case of `CCCC(C)C1(CC)C(=O)NC(=O)NC1=O` (stereo not drawn) [Pentobarbatol], in data set [12], the “Synaptic transmission (calcium spikes)” value is “↑Synaptic transmission (calcium” and the dendrite growth entry was “↑ dendrite growth,”.

For the molecule `O=C(CCCCCCC(=O)Nc1ccccc1)NO` [SAHA, Vorinostat], in data set [13], the memory result is given as “improves”. Moreover, in data set [11], the “ability to reduce cell death” value is “comparable to TSA” and the “expression of AR [the mutant protein]” value is reported as “slightly increased”. In addition, the Motor function entry in data set [14] (added to drinking water) is “marked improvement”. In [14] (mouse, in vivo), the blood-brain barrier crossing entry was “crosses the blood-brain barrier” and the “histone acetylation in the brain” value was “increases”.

`O=C1CCc2c(ccc3ccccc23)O1` [Splitomycin]: the “FMR1 mRNA relative to normal control cells” value in [2] is on record as “approximately 20%”.

As to `CC1(C)O[C@@H]2[C@@H](CO[C@@]3(COS(N)(=O)=O)OC(C)(C)O[C@@H]23)O1` [Topiramate], in [10], the Apneias entry is on record as “↓ Apneias”. Moreover, the “Histone acetylation (mechanism)” value in [5] is given as “HDACi”.

As for `CC(=O)OCC(COC(C)=O)OC(C)=O` [Triacetin, glycerin triacetate], the signs of toxicity entry in [15] is on record as “No overt signs of toxicity”. In addition, in [16] (CIREP, 2003), the metabolism entry is “quickly metabolized into glycerol and acetic acid”; the “toxicity in acute oral or dermal exposures” value is reported as “not toxic”. For the same molecule, the “tolerated triacetin as a percentage of total diet” value in data set [16] (replacing conventional carbohydrates, Shapira, 1968) is reported as “up to 20%”.

On to `CC(/C=C/C(=O)NO)=C\[C@@H](C)C(=O)c1ccc(N(C)C)cc1` [Trichostatin A], for which, in data set [1] (even if Xist was turned off), the “X-inactivation of the cells” value is reported as “no change”. In [17], the acetylation result was “increased”, the “glucocorticoid receptor gene activation” value is recorded as “to levels indistinguishable from adult offspring of High LG maternal care”, the methylation result is given as “reduced” and the stress response result is recorded as “reduced”. For the same molecule, in [11], the “ability to reduce cell death” value is reported as “reduce cell death” and the “expression of AR [the mutant protein]” value is recorded as “slightly increased”.

On to `CCCCCCC(=O)OCC(COC(=O)CCCCCC)OC(=O)CCCCCC` [Triheptanoin], for which, in data set [18], the Lifespan result is recorded as “↑ Lifespan, ↑ Social interaction,”; the Motor function result is recorded as “↑ Motor function”; the Social interaction result was “↑ Lifespan, ↑ Social interaction,”. Also, the “Histone acetylation (mechanism)” value in data set [5] was “Metabolizes to Acetyl-CoA”.

As to `CN1CCc2c(c3ccccc3n2Cc2ccc(C(=O)NO)cc2)C1` [Tubastatin A], in data set [19], the “concentration at which it is a specific HDACi inhibitor (as low as)” value was 1 µM and the mictotubules depolymerization result was “Protects mictotubules from”. Further, in data set [5], the “Histone acetylation (mechanism)” value is listed as “HDACi”. Moreover, in data set [20], the “HDACi activity relative to butyrate” value is given as 5000 times.

With `CCCC(CCC)C(=O)O` [Valproic acid], in data set [3] (Guo, 2014), the Motility entry was “↑ Motility,”, the “gene expression in brain” value is on record as “Normalized gene expression in brain” and the neurological symptoms result is listed as “Improved neurological symptoms,”. Besides, the “Histone acetylation (mechanism)” value in data set [5] was “HDACi”. In addition, the HDAC inhibitor activity entry in data set [21] is reported as “HDAC inhibitors”. Besides, the “demethylation of ectopically methylated DNA” value in data set [22] is “stimulates active demethylation”.

As for `CC(=O)O` [acetate], in data set [23], the “time for histones to become significantly acetylated” value was not above 15 min.

`NC(=O)N1c2ccccc2C=Cc2ccccc21` [carbamazepine]: in data set [21], the HDAC inhibitor activity result is “HDAC inhibitors”.

`CN(C)CCCN1c2ccccc2CCc2ccc(Cl)cc21` [clomipramine]: the HDAC inhibitor activity entry in [21] is “HDAC inhibitors”.

For `CNCC[C@H](Oc1cccc2ccccc12)c1cccs1` [duloxetine], the HDAC inhibitor activity entry in [21] is recorded as “HDAC inhibitors”.

In the case of `Nc1nnc(-c2cccc(Cl)c2Cl)c(N)n1` [lamotrigine], in data set [21], the HDAC inhibitor activity entry is “HDAC inhibitors”.

In the case of `CC[C@@H](C(N)=O)N1CCCC1=O` [levetriacetam], the HDAC inhibitor activity result in data set [21] is “HDAC inhibitors”.

`[Cl-].[Li+]` [lithium chloride]: the HDAC inhibitor activity entry in [21] is “HDAC inhibitors”.

`NC(=O)N1c2ccccc2CC(=O)c2ccccc21` [oxcarbazepine]: the HDAC inhibitor activity entry in [21] was “HDAC inhibitors”.

Turning to Glatiramer acetate, the BDNF result in [24] was “↑ BDNF”; in data set [24] (text), “increase”. Further, the “Histone acetylation (mechanism)” value in data set [5] is reported as “Contains acetate”.

For the molecule IGF-1: Insulin-like Growth Factor 1, the Apneias entry in data set [10] is “↓ Apneias”. Moreover, the “9 separate measures of RTT symptoms in mice” value in [25] (MeCP2 mutant mice, Tropea) is “partially rescued”. Further, in data set [25] (Trpoea), the Lifespan entry is reported as “↑ Lifespan, ↑ Normal breathing,”; the Motor function result is listed as “↑ Motor function”; the Normal breathing result is “↑ Lifespan, ↑ Normal breathing,”. Moreover, the “Histone acetylation (mechanism)” value in data set [5] is on record as “Increases H3, H4 Histone”.

B1: Exogenous BDNF: Brain Derived Neurotrophic Factor protein, given exogenously (protein, UniProt P23560 129-247, looked up)
Neurotrophic factor BDNF: HSDPARRGELSVCDSISEWVTAADKKTAVDMSGGTVTVLEKVPVSKGQLKQYFYETKCNPMGYTKEGCRGIDKRHWNSQCRTTQSYVRALTMDSKKRIGWRFIRIDTSCVCTLTIKRGR
modifications: Neurotrophic factor BDNF
For the molecule B1, the “synaptic function in brainstem slices” value in data set [3] (Kline, 2010, listed as exogenous BDNF) is reported as “normalize”.
